Experimental findings from patent publication US9040527B2, “Pyrimidinediamine kinase inhibitors” (Rigel Pharmaceuticals, Inc., priority 2008, dated 2015) are described below.

Assay [1] concerns the target T1, PLK1 (Homo sapiens, UniProt P53350). Briefly: In vitro PLK1 ELISA assay (biochemical). On the set-up: purchased Cell Signalling 7728. A digest of the protocol:
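Commercial PLK1 phosphorylates neutravidin-captured biotinylated CHK2 peptide for 45 min at room temperature in HEPES pH 7.2 with Mg2+/Mn2+/DTT, compounds at 10 μM to 0.005 μM. Phospho-CHK2(T68) antibody plus HRP secondary gives chemiluminescent read-out used for IC50.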
(ELISA stands for enzyme-linked immunosorbent assay.)

In assay [2] the target is T1, PLK1. Description: Cellular PLK1 assay in K562 cells overexpressing CDC25C. The assay is classed as cell-based. On the set-up: endogenous in cells; host or cells: K562 (human chronic myelogenous leukemia) overexpressing CDC25C, nocodazole-arrested. The conditions noted are these: nocodazole arrested, cdc25c p-Ser198 readout. How it is done:
Inhibition of PLK1 was measured by quantifying phosphorylation of PLK1 substrates using chemiluminescent and fluorogenic probes. The protocols for these assays are provided below.
1. Culturing of K562 Cells
Human chronic myelogenous leukemia K562 cells (American Tissue Culture Collection) overexpressing CDC25C, were grown in Growth Medium having the following composition: Iscove Dulbecco's Modified Eagle's Medium (“Iscove DMEM”, Mediatech/Cellgro, Cat. #10-013-CV), 10% Fetal Bovine Serum (“FBS”, SAFC Biosciences, Cat. #12106-500M), and 1% penicillin/streptomycin (“pen-strep”, Mediatech/Cellgro, Cat. #30-002-CI). The cells were plated in 96 well round bottom tissue culture plates (Fisher, Costar* Cell Culture plates, Cat. #07-200-95) at 100,000 cells per 50 μL of Growth Medium per well. Nocodazole (Sigma, Cat. # M1404) was added to the growth media to arrest the cells in the G2 or M phase, at 333 nM concentration. The cells were incubated with nocodazole for 18 hours at 37° C. prior to addition of tested compounds.
2. Treatment of Cells with the Tested Compounds
Solutions of tested compounds in DMSO at different concentrations were prepared using serial dilutions. Each compound was tested at 8 concentration points, 10 μM, 3.3 μM, 1.11 μM, 0.37 μM, 0.12 μM, 0.04 μM, 0.014 μM, 0.005 μM, duplicate replicates.
Two controls were performed: “DMSO alone” control in which nocodazole and DMSO were present but no compounds were added, and “nocodazole alone” control, in which only nocodazole was present, but neither DMSO nor compounds were added.
The solutions of compounds were prepared by diluting 10 mM compound 1:1 in DMSO (5 μL 10 mM compound and 5 μL DMSO), followed by 1:3 serial dilutions of compound in DMSO performed by diluting 3 μL of higher concentration compound solution serially into 6 μL DMSO to give 3-fold dilutions. Next, 3 μL of each compound solution at each concentration was transferred to 750 μL of Growth Medium. In “DMSO alone” control 3 μL of DMSO alone was added to 750 μL of Growth Medium.
After the diluted compounds were mixed well in the Growth Medium, 50 μL of each compound solution in DMSO/Growth Medium was transferred to each well of the 96-plate containing cells in 50 μL of Growth Medium/Nocodazole.
The cells and compounds were incubated for 120 minutes at 37° C., in an atmosphere containing 5% CO2.
3. Fixation and Permeabilization of the Cells
After the cells were incubated with compounds, the cells were spun down at 1,000 rpm for 5 minutes at 4° C. and supernatants were removed by flicking the plates. Cells were then washed with 200 μl of ice cold PBS, spun down again and supernatants removed. Cells were then fixed and permeabilized by addition of 100 μL/well of Fixation and Permeabilization Solution (1× buffer provided in BD Biosciences Cytofix/Cytoperm™ Fixation/Permeabilization kit, Cat. #554714) and incubation for 20 minutes at room temperature. The fixative was then removed by centrifugation (5 minutes at 2,000 rpm), and plates were flicked to remove the fixative and washed twice, each time with 200 μL/well BD Perm/Wash buffer (10× concentrate provided in BD Biosciences Cytofix/Cytoperm™ Fixation/Permeabilization kit, Cat. #554714, 1× buffer prepared by dilution in distilled H2O).
Cells were spun down at 1,000 rpm for 5 minutes at 4° C. Supernatants were removed by flicking the plates. A solution of a primary antibody specific for cdc25cp-Ser198 was prepared by diluting Rabbit cdc25c (Ser198) antibody (Cell Signaling, #9529L) 1:50 in a Fluorescence Activated Cell Sorting (“FACS”) Buffer (2% FBS in PBS). The cell pellets were resuspended in 50 μL of the primary antibody solution. 50 μL of FACS buffer was added to unstained controls. Staining was allowed to proceed overnight at room temperature.
The plates were then washed by addition of 200 μL of FACS Buffer to each well, were centrifuged and the supernatant was removed. […]

The mark [3] stands for this setting: ELISA, CHK2-derived peptide substrate, read-out: PLK1 IC50 (μM) biochemical assay.
Where [4] appears, read: read-out: IC50 in biochemical in vitro PLK1 ELISA assay (less than 10 μM).
The mark [5] stands for this setting: read-out: IC50 in biochemical ELISA assay (less than 0.01 μM).

T1 sequence (P53350 whole entry): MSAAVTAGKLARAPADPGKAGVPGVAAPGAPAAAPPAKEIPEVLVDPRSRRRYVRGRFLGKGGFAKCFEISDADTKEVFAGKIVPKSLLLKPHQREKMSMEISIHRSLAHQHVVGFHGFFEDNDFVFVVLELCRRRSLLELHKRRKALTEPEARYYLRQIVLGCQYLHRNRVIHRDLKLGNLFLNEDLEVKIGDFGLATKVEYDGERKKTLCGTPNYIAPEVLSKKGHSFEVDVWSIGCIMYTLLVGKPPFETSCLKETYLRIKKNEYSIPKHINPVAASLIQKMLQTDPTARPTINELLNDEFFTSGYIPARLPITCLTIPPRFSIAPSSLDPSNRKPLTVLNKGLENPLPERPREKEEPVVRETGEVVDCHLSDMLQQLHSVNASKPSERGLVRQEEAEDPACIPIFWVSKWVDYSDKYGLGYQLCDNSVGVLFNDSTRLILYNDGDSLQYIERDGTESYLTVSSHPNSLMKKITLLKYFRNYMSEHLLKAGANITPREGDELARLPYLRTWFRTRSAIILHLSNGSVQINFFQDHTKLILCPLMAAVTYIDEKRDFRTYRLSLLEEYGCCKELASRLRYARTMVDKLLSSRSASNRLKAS

As a reminder, the IC50 is the concentration that inhibits the measured activity by half. In the case of `CC(C)Oc1ccc(N2CCN(C)CC2)cc1Nc1ncc(F)c(Nc2ccc3c(n2)NC(=O)CO3)n1` [compound 30, 6-(5-fluoro-2-(2-isopropoxy-5-(4-methylpiperazin-1-yl)phenylamino)pyrimidin-4-ylamino)-2H-pyrido[3,2-b][1,4]oxazin-3(4H)-one], the IC50 is less than 0.5 µM at PLK1 [1] (setting [3]), less than 10 µM at PLK1 [1] (setting [4]) and less than 0.5 µM against PLK1 [2].

As for `CCCN1C(=O)COc2ccc(Nc3nc(Nc4ccc(N5CC6CC5CN6S(C)(=O)=O)c(C)c4)ncc3F)nc21` (stereo not shown) [compound 31, 6-(5-fluoro-2-(3-methyl-4-(5-(methylsulfonyl)-2,5-diazabicyclo[2.2.1]heptan-2-yl)phenylamino)pyrimidin-4-ylamino)-4-propyl-2H-pyrido[3,2-b][1,4]oxazin-3(4H)-one], the IC50 is not below 10 µM at PLK1 [1] (setting [3]) and 0.5 to 5 µM on PLK1 [2].

As to `CCCN1C(=O)COc2ccc(Nc3nc(Nc4ccc(N5CC6CC5CN6S(C)(=O)=O)c(C)c4)ncc3C)nc21` (stereo not shown) [compound 32, 6-(5-methyl-2-(3-methyl-4-(5-(methylsulfonyl)-2,5-diazabicyclo[2.2.1]heptan-2-yl)phenylamino)pyrimidin-4-ylamino)-4-propyl-2H-pyrido[3,2-b][1,4]oxazin-3(4H)-one], the IC50 was 0.5 to 5 µM at PLK1 [1] (setting [3]), less than 10 µM on PLK1 [1] (setting [4]) and 0.5 to 5 µM on PLK1 [2].

Turning to `CCCN1CCOc2ccc(Nc3nc(Nc4ccc(N5CC6CC5CN6S(C)(=O)=O)c(C)c4)ncc3C)nc21` (stereo not shown) [compound 33, 5-methyl-N2-(3-methyl-4-(5-(methylsulfonyl)-2,5-diazabicyclo[2.2.1]heptan-2-yl)phenyl)-N4-(4-propyl-3,4-dihydro-2H-pyrido[3,2-b][1,4]oxazin-6-yl)pyrimidine-2,4-diamine], the IC50 at PLK1 [1] (setting [3]) is less than 0.5 µM; on PLK1 [1] (setting [4]), less than 10 µM; at PLK1 [2], 0.5 to 5 µM.

In the case of `CN1CCN(c2ccc(C3CC3)c(Nc3ncc(F)c(Nc4ccc5c(n4)NCCO5)n3)c2)CC1` [compound 34, N2-(2-cyclopropyl-5-(4-methylpiperazin-1-yl)phenyl)-N4-(3,4-dihydro-2H-pyrido[3,2-b][1,4]oxazin-6-yl)-5-fluoropyrimidine-2,4-diamine], the IC50 at PLK1 [1] (setting [3]) was less than 0.5 µM; at PLK1 [1] (setting [4]), less than 10 µM; against PLK1 [2], less than 0.5 µM.

Consider `CCCN1C(=O)COc2ccc(Nc3nc(Nc4ccc(N5CC6CC5CN6C(C)=O)c(C)c4)ncc3F)nc21` (stereo not shown) [compound 35, 6-(2-(4-(5-acetyl-2,5-diazabicyclo[2.2.1]heptan-2-yl)-3-methylphenylamino)-5-fluoropyrimidin-4-ylamino)-4-propyl-2H-pyrido[3,2-b][1,4]oxazin-3(4H)-one], for which the IC50 was less than 0.5 µM on PLK1 [1] (setting [3]), less than 10 µM at PLK1 [1] (setting [4]) and 0.5 to 5 µM at PLK1 [2].

For `Cc1ccc(Nc2ncc(F)c(Nc3ccc4c(n3)NCCO4)n2)cc1N1CC2CC1CN2C` (stereo not shown) [compound 36, N4-(3,4-dihydro-2H-pyrido[3,2-b][1,4]oxazin-6-yl)-5-fluoro-N2-(4-methyl-3-(5-methyl-2,5-diazabicyclo[2.2.1]heptan-2-yl)phenyl)pyrimidine-2,4-diamine], the IC50 on PLK1 [1] (setting [3]) was less than 0.5 µM; at PLK1 [1] (setting [5]), less than 0.01 µM; on PLK1 [1] (setting [4]) it was less than 10 µM; at PLK1 [2], 0.5 to 5 µM.

Consider `CCCN1CCOc2ccc(Nc3nc(Nc4ccc(N5CC6CC5CN6C(C)=O)c(C)c4)ncc3F)nc21` (stereo not shown) [compound 37, 1-(5-(4-(5-fluoro-4-(4-propyl-3,4-dihydro-2H-pyrido[3,2-b][1,4]oxazin-6-ylamino)pyrimidin-2-ylamino)-2-methyl-phenyl)-2,5-diaza-bicyclo[2.2.1]heptan-2-yl)ethanone], for which the IC50 on PLK1 [1] (setting [3]) was 0.5 to 5 µM; on PLK1 [1] (setting [4]) it was less than 10 µM; at PLK1 [2], 0.5 to 5 µM.

For `CCCN1C(=O)COc2ccc(Nc3nc(Nc4ccc(N5CC6CC5CN6C(C)=O)c(C)c4)ncc3C)nc21` (stereo not shown) [compound 38, 6-(2-(4-(5-acetyl-2,5-diazabicyclo[2.2.1]heptan-2-yl)-3-methylphenyl-amino)-5-methyl-pyrimidin-4-ylamino)-4-propyl-2H-pyrido[3,2-b][1,4]oxazin-3(4H)-one], the IC50 is less than 0.5 µM at PLK1 [1] (setting [3]), less than 10 µM on PLK1 [1] (setting [4]) and 0.5 to 5 µM at PLK1 [2].

For the molecule `CCCN1CCOc2ccc(Nc3nc(Nc4ccc(N5CC6CC5CN6C(C)=O)c(C)c4)ncc3C)nc21` (stereo not shown) [compound 39, 1-(5-(2-methyl-4-(5-methyl-4-(4-propyl-3,4-dihydro-2H-pyrido[3,2-b][1,4]oxazin-6-ylamino)pyrimidin-2-ylamino)phenyl)-2,5-diazabicyclo[2.2.1]heptan-2-yl)ethanone], the IC50 on PLK1 [1] (setting [3]) is 0.5 to 5 µM; at PLK1 [1] (setting [4]) it was less than 10 µM; on PLK1 [2] it was 0.5 to 5 µM.

For the molecule `CN1CC2CC1CN2c1cccc(Nc2ncc(F)c(Nc3ccc4c(n3)NC(=O)CO4)n2)c1` (stereo not shown) [compound 41, 6-(5-fluoro-2-(3-(5-methyl-2,5-diaza-bicyclo[2.2.1]heptan-2-yl)phenylamino)pyrimidin-4-ylamino)-2H-pyrido[3,2-b][1,4]oxazin-3(4H)-one], the IC50 at PLK1 [1] (setting [3]) is less than 0.5 µM; at PLK1 [1] (setting [4]) it was less than 10 µM; against PLK1 [2] it was less than 0.5 µM.

As for `CN1CC2CC1CN2c1cccc(Nc2ncc(F)c(Nc3ccc4c(n3)NCCO4)n2)c1` (stereo not shown) [compound 42, N4-(3,4-dihydro-2H-pyrido[3,2-b][1,4]oxazin-6-yl)-5-fluoro-N2-(3-(5-methyl-2,5-diazabicyclo[2.2.1]heptan-2-yl)phenyl)pyrimidine-2,4-diamine], the IC50 at PLK1 [1] (setting [3]) is less than 0.5 µM; on PLK1 [1] (setting [5]) it was less than 0.01 µM; at PLK1 [1] (setting [4]), less than 10 µM; at PLK1 [2] it was less than 0.5 µM.

With `CC(C)c1ccc(N2CCN(C)CC2)cc1Nc1ncc(F)c(Nc2ccc3c(n2)NC(=O)CO3)n1` [compound 43, 6-(5-fluoro-2-(2-isopropyl-5-(4-methylpiperazin-1-yl)phenylamino)pyrimidin-4-ylamnino)-2H-pyrido[3,2-b][1,4]oxazin-3(4H)-one], the IC50 on PLK1 [1] (setting [3]) is less than 0.5 µM; on PLK1 [1] (setting [4]) it was less than 10 µM; against PLK1 [2], less than 0.5 µM.

Regarding `CC(C)c1cc(Nc2ncc(F)c(Nc3ccc4c(n3)NC(=O)CO4)n2)cc(N2CCN(C)CC2)c1` [compound 44, 6-(5-fluoro-2-(3-isopropyl-5-(4-methylpiperazin-1-yl)phenylamino)pyrimidin-4-ylamino)-2H-pyrido[3,2-b][1,4]oxazin-3(4H)-one], the IC50 on PLK1 [1] (setting [3]) was less than 0.5 µM; on PLK1 [1] (setting [4]) it was less than 10 µM; on PLK1 [2], not below 10 µM.

In the case of `CCOc1ccc(N2CCN(C)CC2)cc1Nc1ncc(F)c(Nc2ccc3c(n2)NCCO3)n1` [compound 45, N4-(3,4-dihydro-2H-pyrido[3,2-b][1,4]oxazin-6-yl)-N2-(2-ethoxy-5-(4-methylpiperazin-1-yl)phenyl)-5-fluoro-pyrimidine-2,4-diamine], the IC50 at PLK1 [1] (setting [3]) is less than 0.5 µM; at PLK1 [1] (setting [4]), less than 10 µM; against PLK1 [2] it was less than 0.5 µM.
